Measurements reported in EP0845210A1, “New herbicidal compositions” (RHONE-POULENC AGRICULTURE LTD., priority 1994, dated 1996).

What was measured:
Type in all cases: in vivo
Echinochloa crus-galli = assay: Procedure A: pre-emergence glasshouse pot test, growth reduction assessed two weeks after treatment
Description: (§1) Seed of the various species of broad-leaf or grass weeds were sown in unsterilised clay loam soil in 7 centimetre by 7 centimetre plastic plant pots. The pots were watered and allowed to drain. The soil surface was then sprayed with ranges of concentrations of either the individual herbicide or mixtures of two herbicides in various proportions, dissolved in a 50:50 by volume solution of acetone and water, using a track sprayer set to deliver the equivalent of 290 l/ha. All herbicides were used as unformulated technical materials except dimethenamid, which was used as the commercial formulation "Frontiere" (trade mark), a flowable containing 900g/l active ingredient; and alachlor, which was used as "Lasso" (trade mark), an emulsifiable concentrate formulation containing 480g/l active ingredient.
(§2) Treated pots were placed at random in four replicate blocks per treatment for each plant species. The pots were held, in a glasshouse, standing on moist capillary matting, under lights and with overhead watering twice daily.
(§3) Two weeks after treatment the percent reduction in plant growth, compared to an untreated control, was assessed.
(§4) Mean percent reduction in plant growth was calculated for each treatment. Dose/mean response was plotted on Log concentration/Probability graph paper, and lines fitted by eye. For herbicide mixtures a dose/response line for the first herbicide was drawn for each dose rate of the second herbicide and a dose/response line for the second herbicide was drawn for each dose rate of the first herbicide. The doses representing a 90% reduction in plant growth (LD90's) were read from these lines and plotted on graphs whose axes were dose rates of the two herbicides. The line joining these points is an Isobole i.e. a line joining points (mixtures) of equal activity, as described by P.M.L. Tammes, Neth. J. Plant Path. 70 (1964) : 73-80. A line was also drawn joining the LD90's of the individual components of the mixture. This line represents the theoretical isobole if the effect of the two components is additive i.e. there is no interaction between them. Isoboles falling below this line indicate synergy between the components while lines lying above it indicate antagonism.
(§5) In the tables that follow 'dose' represents the dose rate in grammes per hectare of the active ingredient used; and the figures for the weed control are percentages reduction in growth when compared with the untreated controls.

Digitaria sanguinalis = assay: as above
Description: as §1, §2, §3, §4, §5

Setaria viridis = assay: as above; conditions: Table A1
Description: as §1, §2, §3, §4, §5

maize (Zea mays) = assay: Procedure D: pre-emergence field trial (Volga, Brookings), crop phytotoxicity about 26 days after treatment; conditions: A 37.5 g/ha alone
Experimental: (§6) The following experiments were carried out pre-emergence of the weed species. Compound A, formulated as a wettable dispersible granule as described in Example 1 herebelow (750g per kilogram) and each acetochlor (used as the commercially available formulation "Harness" (trade mark), an emulsifiable concentrate containing 960g of acetochlor per kilogram, and which also contains the safening agent flurazole, metolachlor (used as the commercially available formulation "Duelor" (trade mark), an emulsifiable concentrate emulsifiable concentrate containing 960g of metolachlor per kilogram), alachlor (used as the commercially available formulation "Lasso" (trade mark), an emulsifiable concentrate containing 480g of alachlor per kilogram) and dimethenamid (used as the commercially available formulation "Frontiere" (trade mark), a flowable containing 900g/l active ingerident) were dissolved in water and sprayed at a volume rate of 187 litres/hectare on various test plots (10 square meters in area) either alone or in mixtures. The soil was a clay-loam, with a pH of 7, the experiments being conducted in June in Volga, Brookings, U.S.A. The various weed and crop species were drill sown and the various compositions were applied on the same day after drilling. Three replicates were performed and the efficacy of the various mixtures were determined by visual assessment of the percentage phytotoxicity in comparison with an untreated control. Assessment was made about 26 days after treatment. In the Tables which follow the dose is expressed in grammes per hectare and the figures in brackets represent the expected results according to the Colby formula.

Panicum miliaceum = assay: Procedure D: pre-emergence field trial (Volga, Brookings), visual assessment about 26 days after treatment; conditions: A 375 g/ha alone
Experimental: as §6

Abutilon theophrasti = assay: as above; conditions: A 37.5 g/ha alone
Experimental: as §6

Helianthus annuus = assay: as above; conditions: A 37.5 g/ha alone
Experimental: as §6

maize = assay: Procedure C: field trial of crop phytotoxicity, visual assessment 40 days after sowing
Experimental: The experiments were carried out pre-emergence of the weed species at various research farm locations throughout the Mid-West corn belt in United States of America with Compounds A and D (each formulated as wettable powders) and metolachlor (formulated as a 96% emulsifiable concentrate), alachlor (formulated as a 48% emulsifiable concentrate) and dimethenamid (formulated as a 90% emulsifiable concentrate).
Various mixtures of the above 4-benzoylisoxazoles and chloroacetamides were weighed out and dissolved in water to give a solution containing the appropriate concentrations and ratios of active ingredients.
The solution was mixed for one hour and applied at a spray volume of 231 litres/hectare to a 3 metre by 5 metre test plot comprising the maize seed which were sown 2 days earlier. 3 replicates were performed. The experiments were performed using seven varities of maize (except for the mixtures comprising alachlor at 1120 g per hectare, where four varieties were used). A control plot was sprayed with a solution not containing test compound. Visual assessment of phytotoxicity was made 40 days after sowing the maize seeds based on a comparison with the control plot. Table F1

SMILES: CS(=O)(=O)c1cc(C(F)(F)F)ccc1C(=O)c1cnoc1C1CC1 [Compound A, 5-cyclopropyl-4-(2-methylsulphonyl-4-trifluoromethyl)benzoylisoxazole]
- percent reduction in plant growth (Echinochloa crus-galli; A 1 g/ha alone, Table B2): 12.5%
- percent reduction in plant growth (Echinochloa crus-galli; A 1 g/ha alone, Table D2): 11.25%
- percent reduction in plant growth (Echinochloa crus-galli; A 2 g/ha alone, Table B2): 6.25%
- percent reduction in plant growth (Echinochloa crus-galli; A 2 g/ha alone, Table C2): 3.75%
- percent reduction in plant growth (Echinochloa crus-galli; A 2 g/ha alone, Table D2): 7.5%
- percent reduction in plant growth (Echinochloa crus-galli; A 4 g/ha alone, Table B2): 1.25%
- percent reduction in plant growth (Echinochloa crus-galli; A 4 g/ha alone, Table C2): 2.5%
- percent reduction in plant growth (Echinochloa crus-galli; A 4 g/ha alone, Table D2): 15%
- percent reduction in plant growth (Echinochloa crus-galli; A 8 g/ha alone, Table B2): 61.25%
- percent reduction in plant growth (Echinochloa crus-galli; A 8 g/ha alone, Table C2): 32.5%
- percent reduction in plant growth (Echinochloa crus-galli; A 8 g/ha alone, Table D2): 15%
- percent reduction in plant growth (Echinochloa crus-galli; A 16 g/ha alone, Table B2): 71.25%
- percent reduction in plant growth (Echinochloa crus-galli; A 16 g/ha alone, Table C2): 60%
- percent reduction in plant growth (Echinochloa crus-galli; A 16 g/ha alone, Table D2): 62.5%
- percent reduction in plant growth (Echinochloa crus-galli; A 32 g/ha alone, Table B2): 75%
- percent reduction in plant growth (Echinochloa crus-galli; A 32 g/ha alone, Table C2): 90%
- percent reduction in plant growth (Echinochloa crus-galli; A 32 g/ha alone, Table D2): 86%
- percent reduction in plant growth (Echinochloa crus-galli; A 64 g/ha alone, Table B2): 93.5%
- percent reduction in plant growth (Echinochloa crus-galli; A 64 g/ha alone, Table C2): 97%
- percent reduction in plant growth (Echinochloa crus-galli; A 64 g/ha alone, Table D2): 87.5%
- percent reduction in plant growth (Echinochloa crus-galli; A 128 g/ha alone, Table B2): 93.75%
- percent reduction in plant growth (Echinochloa crus-galli; A 128 g/ha alone, Table C2): 99.75%
- percent reduction in plant growth (Echinochloa crus-galli; A 128 g/ha alone, Table D2): 99.5%
- percent reduction in plant growth (Echinochloa crus-galli; A 256 g/ha alone, Table D2): 92.5%
- percent reduction in plant growth (Digitaria sanguinalis; A 1 g/ha alone, Table B1): 18.75%
- percent reduction in plant growth (Digitaria sanguinalis; A 1 g/ha alone, Table D1): 0%
- percent reduction in plant growth (Digitaria sanguinalis; A 2 g/ha alone, Table B1): 20%
- percent reduction in plant growth (Digitaria sanguinalis; A 2 g/ha alone, Table C1): 20%
- percent reduction in plant growth (Digitaria sanguinalis; A 2 g/ha alone, Table D1): 12.5%
- percent reduction in plant growth (Digitaria sanguinalis; A 4 g/ha alone, Table B1): 33.75%
- percent reduction in plant growth (Digitaria sanguinalis; A 4 g/ha alone, Table C1): 40%
- percent reduction in plant growth (Digitaria sanguinalis; A 4 g/ha alone, Table D1): 17.5%
- percent reduction in plant growth (Digitaria sanguinalis; A 8 g/ha alone, Table B1): 67.5%
- percent reduction in plant growth (Digitaria sanguinalis; A 8 g/ha alone, Table C1): 7.5%
- percent reduction in plant growth (Digitaria sanguinalis; A 8 g/ha alone, Table D1): 61.25%
- percent reduction in plant growth (Digitaria sanguinalis; A 16 g/ha alone, Table B1): 50%
- percent reduction in plant growth (Digitaria sanguinalis; A 16 g/ha alone, Table C1): 50%
- percent reduction in plant growth (Digitaria sanguinalis; A 16 g/ha alone, Table D1): 67.5%
- percent reduction in plant growth (Digitaria sanguinalis; A 32 g/ha alone, Table B1): 73.5%
- percent reduction in plant growth (Digitaria sanguinalis; A 32 g/ha alone, Table C1): 74.75%
- percent reduction in plant growth (Digitaria sanguinalis; A 32 g/ha alone, Table D1): 66%
- percent reduction in plant growth (Digitaria sanguinalis; A 64 g/ha alone, Table B1): 87.5%
- percent reduction in plant growth (Digitaria sanguinalis; A 64 g/ha alone, Table C1): 80%
- percent reduction in plant growth (Digitaria sanguinalis; A 64 g/ha alone, Table D1): 95%
- percent reduction in plant growth (Digitaria sanguinalis; A 128 g/ha alone, Table C1): 93.5%
- percent reduction in plant growth (Digitaria sanguinalis; A 128 g/ha alone, Table D1): 76.25%
- percent reduction in plant growth (Digitaria sanguinalis; A 256 g/ha alone, Table D1): 98.75%
- percent reduction in plant growth (Setaria viridis; A 0.5 g/ha alone): 15%
- percent reduction in plant growth (Setaria viridis; A 1 g/ha alone): 5%
- percent reduction in plant growth (Setaria viridis; A 2 g/ha alone): 47.5%
- percent reduction in plant growth (Setaria viridis; A 4 g/ha alone): 33.75%
- percent reduction in plant growth (Setaria viridis; A 8 g/ha alone): 38.75%
- percent reduction in plant growth (Setaria viridis; A 16 g/ha alone): 53.75%
- percent reduction in plant growth (Setaria viridis; A 32 g/ha alone): 70%
- percent reduction in plant growth (Setaria viridis; A 64 g/ha alone): 76%
- percent reduction in plant growth (Setaria viridis; A 128 g/ha alone): 88.75%
- percentage phytotoxicity (maize (Zea mays)): 0%
- percentage phytotoxicity (Panicum miliaceum): 65%
- percentage phytotoxicity (Abutilon theophrasti): 93%
- percentage phytotoxicity (Helianthus annuus): 18%
- Visual assessment of phytotoxicity (maize; A 78 g/ha alone): 0
- Visual assessment of phytotoxicity (maize; A 105 g/ha alone): 0
